pEC50, pIC50: −log10 of the molar value.
Key:
IL-2 = IL-2 production by T cells (anti-CD3 stimulated, ELISA); type: cell-based; details: T-cell, one collective range stated for the tested compounds, read-out: EC50 values for stimulating the production of IL-2
Experimental: 5.48.2 […] and MIP-3α Production by T Cells
PBMC are depleted of adherent monocytes by placing 1×10^8 PBMC in 10 ml complete medium (RPMI 1640 supplemented with 10% heat-inactivated fetal bovine serum, 2 mM L-glutamine, 100 U/ml penicillin, and 100 μg/ml streptomycin) per 10 cm tissue culture dish, in 37° C., 5% CO2 incubator for 30-60 minutes. The dish is rinsed with medium to remove all non-adherent PBMC. T cells are purified by negative selection using the following antibody (Pharmingen) and Dynabead (Dynal) mixture for every 1×10^8 non-adherent PBMC: 0.3 ml Sheep anti-mouse IgG beads, 15 μl anti-CD16, 15 μl anti-CD33, 15 μl anti-CD56, 0.23 ml anti-CD19 beads, 0.23 ml anti-HLA class II beads, and 56 μl anti-CD14 beads. The cells and bead/antibody mixture is rotated end-over-end for 30-60 minutes at 4° C. Purified T cells are removed from beads using a Dynal magnet. Typical yield is about 50% T cells, 87-95% CD3^+ by flow cytometry.
Tissue culture 96-well flat-bottom plates are coated with anti-CD3 antibody OKT3 at 5 μg/ml in PBS, 100 μl per well, incubated at 37° C. for 3-6 hours, then washed four times with complete medium 100 μl/well just before T cells are added. Compounds are diluted to 20 times of final in a round bottom tissue culture 96-well plate. Final concentrations are about 10 μM to about 0.00064 μM. A 10 mM stock of compounds provided herein is diluted 1:50 in complete for the first 20× dilution of 200 μM in 2% DMSO and serially diluted 1:5 into 2% DMSO. Compound is added at 10 μl per 200 μl culture, to give a final DMSO concentration of 0.1%. Cultures are incubated at 37° C., 5% CO2 for 2-3 days, and supernatants analyzed for IL-2 and MIP-3α by ELISA (R&D Systems). IL-2 and MIP-3 cc levels are normalized to the amount produced in the presence of an amount of a compound provided herein, and EC50s calculated using non-linear regression, sigmoidal dose-response, constraining the top to 100% and bottom to 0%, allowing variable slope (GraphPad Prism v3.02).
Abilities of certain compounds for stimulating the production of IL-2 were determined using procedures substantially similar to those described in Section 5.48.2, above.

Namalwa AG4 cells = experiment: Cell proliferation assay (3H-thymidine incorporation); type: cell-based; details: one collective range stated for the tested compounds, read-out: IC50 values for inhibiting proliferation of Namalwa AG4 cells
Experimental: 5.48.3 Cell Proliferation Assay
Cell lines Namalwa, MUTZ-5, and UT-7 are obtained from the Deutsche Sammlung von Mikroorganismen und Zellkulturen GmbH (Braunschweig, Germany). The cell line KG-1 is obtained from the American Type Culture Collection (Manassas, Va., USA). Cell proliferation as indicated by ^3H-thymidine incorporation is measured in all cell lines as follows.
Cells are plated in 96-well plates at 6000 cells per well in media. The cells are pre-treated with compounds at about 100, 10, 1, 0.1, 0.01, 0.001, 0.0001 and 0 μM in a final concentration of about 0.25% DMSO in triplicate at 37° C. in a humidified incubator at 5% CO2 for 72 hours. One microcurie of 3H-thymidine (Amersham) is then added to each well, and cells are incubated again at 37° C. in a humidified incubator at 5% CO2 for 6 hours. The cells are harvested onto UniFilter GF/C filter plates (Perkin Elmer) using a cell harvester (Tomtec), and the plates are allowed to dry overnight. Microscint 20 (Packard) (25 μl/well) is added, and plates are analyzed in TopCount NXT (Packard). Each well is counted for one minute. Percent inhibition of cell proliferation is calculated by averaging all triplicates and normalizing to the DMSO control (0% inhibition). Each compound is tested in each cell line in three separate experiments. Final IC50s are calculated using non-linear regression, sigmoidal dose-response, constraining the top to 100% and bottom to 0%, allowing variable slope. (GraphPad Prism v3.02).
Abilities of certain compounds for inhibiting proliferation of Namalwa AG4 cells were determined using procedures substantially similar to those described in Section 5.48.3, above.

pEC50 (IL-2)	melting point [°C]	Structure (SMILES)	pIC50 (Namalwa AG4 cells)
5.46 to 7.00	–	Cc1nc2ccc(N)cc2c(=O)n1C1CCC(=O)NC1=O (centres unmarked) [3-(6-amino-2-methyl-4-oxo-4H-quinazolin-3-yl)-piperidine-2,6-dione]	5.26 to 8.00
5.46 to 7.00	220 to 222	CCCCCCNC(=O)NCc1ccc2nc(C)n(C3CCC(=O)NC3=O)c(=O)c2c1 (centres unmarked) [1-[3-(2,6-dioxo-piperidin-3-yl)-2-methyl-4-oxo-3,4-dihydro-quinazolin-6-ylmethyl]-3-hexyl-urea]	5.26 to 8.00
5.46 to 7.00	–	Cc1nc2cc(Br)ccc2c(=O)n1C1CCC(=O)NC1=O (centres unmarked) [3-(7-bromo-2-methyl-4-oxo-4H-quinazolin-3-yl)-piperidine-2,6-dione]	5.26 to 8.00
5.46 to 7.00	315 to 317	Cc1nc2ccc(O)cc2c(=O)n1C1CCC(=O)NC1=O (centres unmarked) [3-(6-hydroxy-2-methyl-4-oxo-4H-quinazolin-3-yl)-piperidine-2,6-dione]	–
5.46 to 7.00	291 to 293	Cc1nc2cc(Cl)ccc2c(=O)n1C1CCC(=O)NC1=O (centres unmarked) [3-(7-chloro-2-methyl-4-oxo-4H-quinazolin-3-yl)-piperidine-2,6-dione]	5.26 to 8.00
5.46 to 7.00	201 to 203	Cc1nc2ccc(CNC(=O)Nc3ccc(OC(F)(F)F)cc3)cc2c(=O)n1C1CCC(=O)NC1=O (centres unmarked) [1-[3-(2,6-dioxo-piperidin-3-yl)-2-methyl-4-oxo-3,4-dihydro-quinazolin-6-ylmethyl]-3-(4-trifluoromethoxy-phenyl)-urea]	5.26 to 8.00
5.46 to 7.00	–	Cc1nc2cc(N)ccc2c(=O)n1C1CCC(=O)NC1=O (centres unmarked) [3-(7-amino-2-methyl-4-oxo-4H-quinazolin-3-yl)-piperidine-2,6-dione]	5.26 to 8.00
5.46 to 7.00	243 to 245	Cc1nc2cc(F)ccc2c(=O)n1C1CCC(=O)NC1=O (centres unmarked) [3-(7-fluoro-2-methyl-4-oxo-4H-quinazolin-3-yl)-piperidine-2,6-dione]	5.26 to 8.00

From patent US8492395B2, “7-substituted quinazolinone compounds and compositions comprising the same” (Celgene Corporation, priority 2007, dated 2013)
